The values below come from US20250304537A1 (Repare Therapeutics Inc., priority 2022, published 2025).

Like-named read-outs stand apart in the source and are kept apart here.

In test [1] the test system is PKMYT1 (CDK1 pThr14) in FUOV1 cells. Kind of test: PKMYT1 cell-based activity assay, CDK1 pThr14 AlphaLISA in FUOV1 cells. As to conditions: 2 h, read-out: FUOV-1 CDK1 pThr14 IC50. The essentials: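 IC50 was derived from AlphaLISA signal (excitation 680 nm, emission 615 nm) for phospho-Thr14 CDK1 in lysates. The detection antibodies were rabbit anti-pThr14 and mouse anti-total CDK1, each at 5 nM. FUOV1 ovarian cells were exposed to compound for 2 hours before lysis.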
On the technique in general: In Alpha technology, singlet oxygen from a donor bead excites a nearby acceptor bead.

Test [2] deals with recombinant human Myt1 (full length PKMYT1) (Homo sapiens (Human), UniProt Q99640). Kind of test: Recombinant human Myt1 kinase assay (ADP-Glo). Format: biochemical. As to conditions: 10 μM ATP. In short, it runs like this: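 ADP-Glo luminescence measured ATP hydrolysis by recombinant full-length PKMYT1 (18 nM) after 60 min at 30 °C with 10 μM ATP. Compounds in 0.5% DMSO were added to the enzyme 15 min before ATP, at 22 °C, in HEPES/MgCl2/MnCl2 buffer. IC50 and percent maximal inhibition were derived.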
Chain of recombinant human Myt1 (full length PKMYT1) (Q99640 whole entry): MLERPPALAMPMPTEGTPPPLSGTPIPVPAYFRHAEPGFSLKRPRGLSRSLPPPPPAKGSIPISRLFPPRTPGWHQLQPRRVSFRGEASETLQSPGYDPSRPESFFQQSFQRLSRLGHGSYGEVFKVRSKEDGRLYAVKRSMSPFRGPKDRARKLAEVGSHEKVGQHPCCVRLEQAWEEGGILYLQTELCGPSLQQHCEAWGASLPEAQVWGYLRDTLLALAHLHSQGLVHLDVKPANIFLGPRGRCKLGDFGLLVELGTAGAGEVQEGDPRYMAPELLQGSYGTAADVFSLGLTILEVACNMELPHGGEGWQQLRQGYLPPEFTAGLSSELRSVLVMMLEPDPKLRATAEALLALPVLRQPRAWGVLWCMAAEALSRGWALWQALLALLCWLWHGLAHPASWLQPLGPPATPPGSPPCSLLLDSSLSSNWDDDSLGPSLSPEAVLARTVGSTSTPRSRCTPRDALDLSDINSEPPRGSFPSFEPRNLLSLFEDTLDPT

As to `Cc1ccc2[nH]ncc2c1-c1nc(-c2ccccc2C(O)c2ccccn2)nc(C(N)=O)c1N` (stereo not drawn) [Compound 788], the concentration for half-maximal inhibition (IC50) (commonly the point on the concentration scale where inhibition reaches its midpoint) in test [1] (2 h compound incubation) stood at 1.27 µM; in test [2], 0.044 µM.
For `Cc1ccc2[nH]ncc2c1-c1nc(-c2ccccc2S(=O)(=O)NC(C)(C)C)nc(C(N)=O)c1N` [Compound 792], the IC50 is more than 10 µM in test [1] (2 h compound incubation) and 10.1 µM in test [2].
On the same counts, the results for `CCOc1ccccc1-c1nc(C(N)=O)c(N)c(-c2c(C)ccc3[nH]ncc23)n1` [Compound 794] are 0.641 µM and 0.053 µM.
As to `CNS(=O)(=O)c1ccccc1-c1nc(C(N)=O)c(N)c(-c2c(C)ccc3[nH]ncc23)n1` [Compound 795], the IC50 was more than 10 µM in test [1] (2 hours with compound) and 2.52 µM in test [2].
With `CCCc1ccccc1-c1nc(C(N)=O)c(N)c(-c2c(C)ccc3[nH]ncc23)n1` [Compound 796], the IC50 in test [1] (2 hours with compound) is 0.781 µM; in test [2] it was 0.015 µM.
On the same counts, the results for `Cc1ccc2[nH]ncc2c1-c1nc(-c2cccnc2NS(C)(=O)=O)nc(C(N)=O)c1N` [Compound 804, 5-amino-6-(5-methyl-1H-indazol-4-yl)-2-(2-(methylsulfonamido)pyridin-3-yl)pyrimidine-4-carboxamide] are 0.062 µM and 0.008 µM.
On the same counts, the results for `Cc1ccc2[nH]ncc2c1-c1nc(-c2cccnc2NC(=O)C(C)(C)C)nc(C(N)=O)c1N` [Compound 805, 5-amino-6-(5-methyl-1H-indazol-4-yl)-2-(2-pivalamidopyridin-3-yl)pyrimidine-4-carboxamide] are 0.071 µM and 0.003 µM.
Regarding `CCNC(=O)c1ccccc1-c1nc(C(N)=O)c(N)c(-c2c(C)ccc3[nH]ncc23)n1` [Compound 807], the results for the IC50 in test [1] (2 hours with compound) and in test [2] were more than 10 µM and 4.05 µM, respectively.
On the same counts, the results for `Cc1ccc2[nH]ncc2c1-c1nc(-c2ccccc2-c2ncc[nH]2)nc(C(N)=O)c1N` [Compound 808] are more than 10 µM and 0.014 µM.
In the same order, the values of `Cc1ccc2[nH]ncc2c1-c1nc(Nc2ncccc2-c2ccncn2)nc(C(N)=O)c1N` [Compound 818, 5-amino-6-(5-methyl-1H-indazol-4-yl)-2-((3-(pyrimidin-4-yl)pyridin-2-yl)amino)pyrimidine-4-carboxamide] are more than 10 µM and 3.88 µM.
In the same order, the values of `Cc1ccc2[nH]ncc2c1-c1nc(-c2cccnc2N[C@@H]2CCOCC2(C)C)nc(C(N)=O)c1N` [Compound 829] are 0.01 µM and less than 0.003 µM.
For `Cc1ccc2[nH]ncc2c1-c1nc(-c2cccnc2N[C@H]2CCOCC2(C)C)nc(C(N)=O)c1N` [Compound 830], the IC50 is 0.305 µM in test [1] (2 hours with compound) and 0.008 µM in test [2].
In the same order, the values of `Cc1ccc2[nH]ncc2c1-c1nc(-c2ccc(S(C)(=O)=O)cc2NC2CCOCC2)nc(C(N)=O)c1N` [Compound 831] are 0.118 µM and less than 0.003 µM.
On to `Cc1ccc2[nH]ncc2c1-c1nc(-c2cc(F)cnc2N[C@H]2CC[C@@](O)(C(F)(F)F)CC2)nc(C(N)=O)c1N` [Compound 834], for which the figures for the IC50 in test [1] (2 hours with compound) and in test [2] were 0.49 µM and 0.021 µM, respectively.
On the same counts, the results for `Cc1ccc2[nH]ncc2c1-c1nc(-c2cc(F)cnc2N[C@H]2CC[C@](O)(C(F)(F)F)CC2)nc(C(N)=O)c1N` [Compound 835] are 0.086 µM and 0.011 µM.
For `Cc1ccc2[nH]ncc2c1-c1nc(-c2cc(Cl)ncc2NC2CCOCC2)nc(C(N)=O)c1N` [Compound 839], the IC50 came to 0.022 µM in test [1] (2 hours with compound) and 0.004 µM in test [2].
For `Cc1ccc2[nH]ncc2c1-c1nc(-c2cc(F)ncc2NC2CCOCC2)nc(C(N)=O)c1N` [Compound 843], the IC50 in test [1] (2 hours with compound) came to 0.022 µM; in test [2], 0.003 µM.
On the same counts, the results for `Cc1ccc2[nH]ncc2c1-c1nc(-c2cn(C)nc2NC2CCOCC2)nc(C(N)=O)c1N` [Compound 845] are 0.058 µM and 0.004 µM.
Take `Cc1ccc2[nH]ncc2c1-c1nc(-c2cccc3c2NCCO3)nc(C(N)=O)c1N` [Compound 852]: the IC50 in test [1] (2 hours with compound) is 0.502 µM; in test [2], 0.017 µM.
On the same counts, the results for `Cc1ccc2[nH]ncc2c1-c1nc(-c2cc(F)cnc2NC2CCOC(C(F)(F)F)C2)nc(C(N)=O)c1N` (stereo not drawn) [Compound 873] are 0.862 µM and 0.019 µM.
On the same counts, the results for `Cc1ccc2[nH]ncc2c1-c1nc(-c2cccnc2NC(C)(C)C2CCCO2)nc(C(N)=O)c1N` (stereo not drawn) [Compound 881] are 0.789 µM and less than 0.003 µM.
`Cc1ccc2[nH]ncc2c1-c1nc(-c2cccnc2NCCn2ccnc2C)nc(C(N)=O)c1N` [Compound 884]: the IC50 in test [1] (2 hours with compound) is 1.61 µM; in test [2] it was 0.013 µM.
Regarding `Cc1ccc2[nH]ncc2c1-c1nc(-c2cccnc2Nc2ccnn2C2CC2)nc(C(N)=O)c1N` [Compound 885], the half-inhibitory concentration (IC50) was more than 10 µM in test [1] (2 hours with compound) and 0.176 µM in test [2].
On the same counts, the results for `Cc1ccc2[nH]ncc2c1-c1nc(-c2cn(CC3CC3)nc2NC2CCOCC2)nc(C(N)=O)c1N` [Compound 892] are 0.589 µM and 0.015 µM.
In the same order, the values of `Cc1ccc2[nH]ncc2c1-c1nc(-c2cccnc2NC2CC(OC(F)F)C2)nc(C(N)=O)c1N` (stereo not drawn) [Compound 893] are 0.209 µM and less than 0.003 µM.
`Cc1ccc2[nH]ncc2c1-c1nc(-c2cccnc2Nc2cscn2)nc(C(N)=O)c1N` [Compound 894]: the IC50 in test [1] (2 hours with compound) amounted to 0.447 µM; in test [2] it was 0.017 µM.
Consider `Cc1ccc2[nH]ncc2c1-c1nc(-c2cn(C)nc2NC2CC(F)(F)C2)nc(C(N)=O)c1N` [Compound 896], for which the IC50 in test [1] (2 hours with compound) amounted to 0.147 µM; in test [2] it was 0.004 µM.
In the same order, the values of `Cc1ccc2[nH]ncc2c1-c1nc(-c2cn(C)nc2NC2CCCC2)nc(C(N)=O)c1N` [Compound 900] are 0.046 µM and 0.006 µM.
Turning to `Cc1ccc2[nH]ncc2c1-c1nc(-c2cccnc2NC2(C)CC(C)(O)C2)nc(C(N)=O)c1N` (stereo not drawn) [Compound 901], the IC50 in test [1] (2 hours with compound) was 0.027 µM; in test [2], less than 0.003 µM.
As to `Cc1ccc2[nH]ncc2c1-c1nc(-c2cccnc2Nc2nccn2C2CC2)nc(C(N)=O)c1N` [Compound 902], the IC50 in test [1] (2 hours with compound) is more than 10 µM; in test [2], 0.619 µM.
On the same counts, the results for `Cc1cc(F)c2[nH]ncc2c1-c1nc(-c2cn(C)nc2NC2CCOCC2)nc(C(N)=O)c1N` [Compound 903, 5-amino-6-(7-fluoro-5-methyl-1H-indazol-4-yl)-2-(1-methyl-3-((tetrahydro-2H-pyran-4-yl)amino)-1H-pyrazol-4-yl)pyrimidine-4-carboxamide] are 0.195 µM and 0.004 µM.
On the same counts, the results for `Cc1ccc2[nH]ncc2c1-c1nc(-c2cn(C)nc2NC(C)C)nc(C(N)=O)c1N` [Compound 904] are 0.147 µM and 0.004 µM.
Take `Cc1ccc2[nH]ncc2c1-c1nc(-c2cccnc2NC(=O)C(C)(C)C)c(F)c(C(N)=O)c1N` [Compound 905, 5-amino-3-fluoro-6-(5-methyl-1H-indazol-4-yl)-2′-pivalamido-[2,3′-bipyridine]-4-carboxamide]: the IC50 is more than 10 µM in test [1] (2 hours with compound) and less than 0.003 µM in test [2].
As for `Cc1ccc2[nH]ncc2c1-c1nc(-c2cc(F)cnc2NC2(C(F)(F)F)CC2)nc(C(N)=O)c1N` [Compound 908], the IC50 was 0.095 µM in test [1] (2 hours with compound) and less than 0.003 µM in test [2].
Take `Cc1ccc2[nH]ncc2c1-c1nc(-c2cccnc2N[C@H](c2cccnc2)C(F)F)nc(C(N)=O)c1N` [Compound 936]: the IC50 amounted to 0.221 µM in test [1] (2 hours with compound) and 0.002 µM in test [2].
In the same order, the values of `Cc1ccc2[nH]ncc2c1-c1nc(-c2cccnc2N[C@@H](c2cccnc2)C(F)F)nc(C(N)=O)c1N` [Compound 937] are 0.216 µM and 0.002 µM.
